Tests used:
TT Cell = experiment: TT cell activity test (CelltiterGlo, 72 h); format: cell-based, human; conditions: for IC50: Homo sapiens, TT cell line, 72 h, CTG; for inhibitory activity on TT cells compared with cabozantinib: comparison in words
Experimental: 2.3 Data Processing % Inhibition (inhibition rate)=100*(HC−test compound well reading)/(HC−LC) • High control (HC, reading control without inhibition): 0.5% DMSO • Low control (LC, control with compound inhibition): 1 μM CEP-32496
The IC50 values were calculated using GraphPad Prism 6 software. Y=Bottom+(Top−Bottom)/(1+10^((Log IC50−X)*HillSlope)); • X: log of cpd concentration; • Y: % inhibition; • Top and Bottom: plateaus in same units as Y; • Log IC50: same log units as X; and • HillSlope: slope factor The Cell Results are Shown in Table 5: […]

RET G810R = RET G810R (Homo sapiens (Human), UniProt P07949, G810R); experiment: HTRF kinase activity test, RET G810R; format: biochemical; conditions: for IC50: HTRF KinEASE-TK; for inhibitory activity on RET G810R compared with cabozantinib and selpercatinib (LOXO-292): comparison in words
Chain of RET G810R (P07949 29-1114 G810R): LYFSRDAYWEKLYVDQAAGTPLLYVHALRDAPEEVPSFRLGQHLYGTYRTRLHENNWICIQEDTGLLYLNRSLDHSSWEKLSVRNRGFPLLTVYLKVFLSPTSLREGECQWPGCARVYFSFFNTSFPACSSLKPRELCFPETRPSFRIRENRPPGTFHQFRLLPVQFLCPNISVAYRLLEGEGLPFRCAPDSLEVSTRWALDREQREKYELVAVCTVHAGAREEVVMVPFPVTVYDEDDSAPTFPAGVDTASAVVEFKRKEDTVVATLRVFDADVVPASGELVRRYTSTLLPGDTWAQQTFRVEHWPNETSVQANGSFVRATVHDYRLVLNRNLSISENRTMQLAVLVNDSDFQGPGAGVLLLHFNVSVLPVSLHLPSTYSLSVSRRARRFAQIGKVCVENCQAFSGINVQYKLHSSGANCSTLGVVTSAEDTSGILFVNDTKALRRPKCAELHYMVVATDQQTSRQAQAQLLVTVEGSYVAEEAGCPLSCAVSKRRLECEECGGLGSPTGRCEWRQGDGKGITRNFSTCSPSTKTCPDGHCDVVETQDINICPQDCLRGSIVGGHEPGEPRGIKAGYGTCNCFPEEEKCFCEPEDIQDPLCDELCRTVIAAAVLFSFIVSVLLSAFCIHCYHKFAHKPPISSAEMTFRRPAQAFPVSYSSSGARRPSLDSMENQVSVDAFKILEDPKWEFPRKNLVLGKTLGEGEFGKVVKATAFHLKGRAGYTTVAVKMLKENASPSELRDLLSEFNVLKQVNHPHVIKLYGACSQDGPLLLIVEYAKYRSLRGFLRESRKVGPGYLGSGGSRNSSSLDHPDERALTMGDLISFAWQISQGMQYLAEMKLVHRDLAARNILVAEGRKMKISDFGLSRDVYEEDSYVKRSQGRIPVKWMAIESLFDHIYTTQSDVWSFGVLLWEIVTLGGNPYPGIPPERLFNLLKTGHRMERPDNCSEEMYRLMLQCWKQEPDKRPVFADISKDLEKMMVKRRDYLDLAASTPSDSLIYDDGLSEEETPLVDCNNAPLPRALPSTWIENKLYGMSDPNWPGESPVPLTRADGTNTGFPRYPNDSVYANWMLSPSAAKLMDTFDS

| SMILES | IC50 (TT Cell) [nM] | inhibitory activity on TT cells compared with cabozantinib (TT Cell) | IC50 (RET G810R) [nM] | inhibitory activity on RET G810R compared with cabozantinib and selpercatinib (LOXO-292) (RET G810R) |
| --- | --- | --- | --- | --- |
| COc1cc2nccc(Oc3ccc(NC(=O)C4(C(=O)Nc5ccc(F)cc5)CC4)cc3)c2cc1OC [Cabozantinib, reference compound] | 143 | – | – | – |
| COc1ccc(CN2C3CC2CN(c2ccc(-c4cc(Br)cn5nc6[nH]ncc6c45)cn2)C3)cn1 [Compound 2] | 42.2 | significantly better than that of cabozantinib | – | – |
| COc1ccc(CN2C3CC2CN(c2ccc(-c4cc(OCc5ccccc5)cn5nc6[nH]ncc6c45)cn2)C3)cn1 [Compound 3, 6-(benzyloxy)-4-(6-(6-((6-methoxypyridin-3-yl)methyl)-3,6-diazabicyclo[3.3.1]heptan-3-yl)pyridin-3-yl)-1H-pyrazolo[3′,4′:3,4]pyrazolo[1,5-a]pyridine] | 32.8 | significantly better than that of cabozantinib | 16.2 | significantly better than that of cabozantinib and selpercatinib (LOXO-292) |
| COc1ccc(CN2C3CC2CN(c2ccc(-c4cc(C#N)cn5nc6[nH]ncc6c45)cn2)C3)cn1 [Compound 5, 4-(6-(6-((6-methoxypyridin-3-yl)methyl)-3,6-diazabicyclo[3.3.1]heptan-3-yl)pyridin-3-yl)-1H-pyrazolo[3′,4′:3,4]pyrazolo[1,5-a]pyridine-6-carbonitrile] | 11.8 | significantly better than that of cabozantinib | 38.4 | significantly better than that of cabozantinib and selpercatinib (LOXO-292) |
| COc1ccc(CN2C3CC2CN(c2ccc(-c4cc(N)cn5nc6[nH]ncc6c45)cn2)C3)cn1 [Compound 6, 4-(6-(6-((6-methoxypyridin-3-yl)methyl)-3,6-diazabicyclo[3.3.1]heptan-3-yl)pyridin-3-yl)-1H-pyrazolo[3′,4′:3,4]pyrazolo[1,5-a]pyridin-6-amine] | 19.4 | significantly better than that of cabozantinib | – | – |
| COc1ccc(CN2C3CC2CN(c2ccc(-c4cc(OCC(C)(C)O)cn5nc6[nH]ncc6c45)cn2)C3)cn1 [Compound 8, 1-((4-(6-(6-((6-methoxypyridin-3-yl)methyl)-3,6-diazabicyclo[3.3.1]heptan-3-yl)pyridin-3-yl)-1H-pyrazolo[3′,4′:3,4]pyrazolo[1,5-a]pyridin-6-yl)oxy)-2-methylpropan-2-ol] | 14.4 | significantly better than that of cabozantinib | – | – |
| COc1ccc(CN2C3CC2CN(c2ccc(-c4cc(OCCO)cn5nc6[nH]ncc6c45)cn2)C3)cn1 [Compound 10] | 12.3 | significantly better than that of cabozantinib | 3.8 | significantly better than that of cabozantinib and selpercatinib (LOXO-292) |
| CCCCOc1cc(-c2ccc(N3CC4CC(C3)N4Cc3ccc(OC)nc3)nc2)c2c3cn[nH]c3nn2c1 [Compound 11] | 16.8 | significantly better than that of cabozantinib | 10.1 | significantly better than that of cabozantinib and selpercatinib (LOXO-292) |
| COc1ccc(CN2C3CC2CN(c2ccc(-c4cc(OCCCCF)cn5nc6[nH]ncc6c45)cn2)C3)cn1 [Compound 13] | 10.7 | significantly better than that of cabozantinib | 3.1 | significantly better than that of cabozantinib and selpercatinib (LOXO-292) |
| COc1ccc(CN2C3CC2CN(c2ccc(-c4cc(OCCCl)cn5nc6[nH]ncc6c45)cn2)C3)cn1 [Compound 14, 6-(2-chloroethoxy)-4-(6-(6-((6-methoxypyridin-3-yl)methyl)-3,6-diazabicyclo[3.3.1]heptan-3-yl)pyridin-3-yl)-1H-pyrazolo[3′,4′:3,4]pyrazolo[1,5-a]pyridine] | – | – | 2.2 | significantly better than that of cabozantinib and selpercatinib (LOXO-292) |
| COc1ccc(CN2C3CC2CN(c2ccc(-c4cc(OCCBr)cn5nc6[nH]ncc6c45)cn2)C3)cn1 [Compound 15, 6-(2-bromoethoxy)-4-(6-(6-((6-methoxypyridin-3-yl)methyl)-3,6-diazabicyclo[3.3.1]heptan-3-yl)pyridin-3-yl)-1H-pyrazolo[3′,4′:3,4]pyrazolo[1,5-a]pyridine] | – | – | 7.9 | significantly better than that of cabozantinib and selpercatinib (LOXO-292) |
| COc1ccc(CN2C3CC2CN(c2ccc(-c4cc(OC[C@@H]5CNCCO5)cn5nc6[nH]ncc6c45)cn2)C3)cn1 [Compound 17] | 11.3 | – | – | – |
| CCN(CC)C(=O)N1CCN(c2ccc(-c3cc(OCCF)cn4nc5[nH]ncc5c34)cn2)CC1 [Compound 18, N,N-diethyl-4-(5-(6-(2-fluoroethoxy)-1H-pyrazolo[3′,4′:3,4]pyrazolo[1,5-a]pyridin-4-yl)pyridin-2-yl)piperazine-1-carboxamide] | 78.2 | significantly better than that of cabozantinib | 18.9 | significantly better than that of cabozantinib and selpercatinib (LOXO-292) |
| O=C(Cc1ccccn1)N1CCN(c2ccc(-c3cc(OCCF)cn4nc5[nH]ncc5c34)cn2)CC1 [Compound 19, 1-(4-(5-(6-(2-fluoroethoxy)-1H-pyrazolo[3′,4′:3,4]pyrazolo[1,5-a]pyridin-4-yl)pyridin-2-yl)piperazin-1-yl)-2-(pyridin-2-yl)ethan-1-one] | 31.2 | significantly better than that of cabozantinib | 4.8 | significantly better than that of cabozantinib and selpercatinib (LOXO-292) |
| O=C([C@H](O)c1ccccc1)N1CCN(c2ccc(-c3cc(OCCF)cn4nc5[nH]ncc5c34)cn2)CC1 [Compound 20, (R)-1-(4-(5-(6-(2-fluoroethoxy)-1H-pyrazolo[3′,4′:3,4]pyrazolo[1,5-a]pyridin-4-yl)pyridin-2-yl)piperazin-1-yl)-2-hydroxy-2-phenylethan-1-one] | 27.8 | significantly better than that of cabozantinib | 1.6 | significantly better than that of cabozantinib and selpercatinib (LOXO-292) |
| CO[C@@H](C(=O)N1CCN(c2ccc(-c3cc(OCCF)cn4nc5[nH]ncc5c34)cn2)CC1)c1ccccc1 [Compound 21, (R)-1-(4-(5-(6-(2-fluoroethoxy)-1H-pyrazolo[3′,4′:3,4]pyrazolo[1,5-a]pyridin-4-yl)pyridin-2-yl)piperazin-1-yl)-2-methoxy-2-phenylethan-1-one] | 15.8 | significantly better than that of cabozantinib | 0.6 | significantly better than that of cabozantinib and selpercatinib (LOXO-292) |
| COc1ccc(C(=O)N2CCN(c3ccc(-c4cc(OCCF)cn5nc6[nH]ncc6c45)cn3)CC2)cn1 [Compound 22, (4-(5-(6-(2-fluoroethoxy)-1H-pyrazolo[3′,4′:3,4]pyrazolo[1,5-a]pyridin-4-yl)pyridin-2-yl)piperazin-1-yl)(6-methoxypyridin-3-yl)methanone] | 39.5 | significantly better than that of cabozantinib | 1.7 | significantly better than that of cabozantinib and selpercatinib (LOXO-292) |
| COc1ccc(CN2C3CC2CN(c2ccc(-c4cc(OCCOCC5CC5)cn5nc6[nH]ncc6c45)cn2)C3)cn1 [Compound 28, 6-(2-(cyclopropylmethoxy)ethoxy)-4-(6-(6-((6-methoxypyridin-3-yl)methyl)-3,6-diazabicyclo[3.3.1]heptan-3-yl)pyridin-3-yl)-1H-pyrazolo[3′,4′:3,4]pyrazolo[1,5-a]pyridine] | 64.3 | significantly better than that of cabozantinib | – | – |
| COc1ccc(CN2C3CC2CN(c2ccc(-c4cc(OC(C)C)cn5nc6[nH]ncc6c45)cn2)C3)cn1 [Compound 29] | 60.8 | significantly better than that of cabozantinib | – | – |
| COc1ccc(CN2C3CC2CN(c2ccc(-c4cc(OC(F)F)cn5nc6[nH]ncc6c45)cn2)C3)cn1 [Compound 33, 6-(difluoromethoxy)-4-(6-(6-((6-methoxypyridin-3-yl)methyl)-3,6-diazabicyclo[3.3.1]heptan-3-yl)pyridin-3-yl)-1H-pyrazolo[3′,4′:3,4]pyrazolo[1,5-a]pyridine] | 350 | – | – | – |
| COc1ccc(CN2C3CC2CN(c2ccc(-c4cc(OCCOC5CC5)cn5nc6[nH]ncc6c45)cn2)C3)cn1 [Compound 34] | 81.8 | significantly better than that of cabozantinib | – | – |
| CCOc1cc(-c2ccc(N3CC4CC(C3)N4Cc3ccc(OC)nc3)nc2)c2c3c(C)n[nH]c3nn2c1 [Compound 35] | 296 | – | – | – |
| COc1ccc(CN2C3CC2CN(c2ccc(-c4cc(OCC5CC5)cn5nc6[nH]ncc6c45)cn2)C3)cn1 [Compound 37, 6-(cyclopropylmethoxy)-4-(6-(6-((6-methoxypyridin-3-yl)methyl)-3,6-diazabicyclo[3.3.1]heptan-3-yl)pyridin-3-yl)-1H-pyrazolo[3′,4′:3,4]pyrazolo[1,5-a]pyridine] | 29.2 | significantly better than that of cabozantinib | – | – |

Reference: patent US12338253B2, “Nitrogen-containing polycyclic fused ring compound, pharmaceutical composition thereof, preparation method therefor and use thereof” (APPLIED PHARMACEUTICAL SCIENCE, INC., priority 2019, dated 2025)
